According to US8148328B2, “Salicylanilides enhance oral delivery of therapeutic peptides” (The Regents of the University of California, priority 2006, dated 2012):
Where a name gives a salt, the structure may show the parent alone. Read-outs that look alike come from different tables or passages of the source. Residues, ends and D or L forms follow the SMILES beside them. No end group written: not given here.

How the values were obtained:
[1] = cited from earlier work; for solubility in water: 20° C., ethanolamine salt in distilled water
[2] = tested on: monocyte chemotactic activity in cultures of human aortic endothelial cells; assay: LDL-inflammatory index of LDL from treated apoE null mice; type: in vivo; conditions: FIG. 25: co-administered with D-4F or L-4F, mice of FIG. 24
[3] = tested on: LDL-induced monocyte chemotactic activity in cultures of human aortic endothelial cells; assay: HDL-inflammatory index of HDL from treated apoE null mice; type: in vivo; conditions: for HDL-inflammatory index, potency relative to niclosamide: FIG. 24: salicylanilide 10:1 with 5 μg D-4F or L-4F by stomach tube, 6 hours
Source text: 11-month-old female apoE null mice were fasted during the day. At night the mice were provided chow containing or not containing additions. In the first experiment the mice were given chow alone (C) or chow supplemented with 8.0 micrograms of Niclosamide (2′,5-Dichloro-4′-nitrosalicylanilide; Niclosamide, Sigma catalog number N-3510 Page 1711 2006-2007 catalog Empirical Formula (Hill Notation): C13H8C12N2O4 Formula Weight: 327.12, CAS Number: 50-65-7 Batch 105K0666 EC 200-056-8) per gram of chow (D) or chow supplemented with 2.0 micrograms of L-4F (free base) per gram of chow (E), or chow supplemented with 8.0 micrograms of Niclosamide together with 2.0 micrograms of L-4F (free base) per gram of chow (F). The mice were only given one gram of chow per mouse (n=8 mice per group) so that they would consume all of the chow. In the morning after the chow was consumed the mice were bled and their plasma was sucrose cryopreserved and fractionated by FPLC and the HDL-containing fractions were tested for their ability to inhibit monocyte chemotactic activity induced by a standard control human LDL (A) in cultures of human aortic endothelial cells. The mouse HDL (C-J) was also compared to a standard human HDL (B) that was added at the same concentrations as the mouse HDL. The resulting monocyte chemotactic activity was normalized to the standard control LDL added alone (A). The results are plotted as the HDL-inflammatory index, which is the result of dividing the monocyte chemotactic activity measured for each condition by the monocyte chemotactic activity obtained by the standard control LDL added alone, which was normalized to 1.0 as described previously (Navab et al. (2004) J Lipid Res, 45: 993-1007).
A second experiment was performed as described for the first experiment with 8 mice in each group except that the additions to the chow were different. Chow alone in the second experiment (G) was compared to chow supplemented with 100 micrograms of Niclosamide per gram of chow (H), or supplemented with 10 micrograms of L-4F (free base) per gram of mouse chow (I), or supplemented with 10 micrograms of L-4F (free base) together with 100 micrograms of Niclosamide per gram of chow (J). As in the first experiment the mice were only given one gram of chow per mouse so that they would consume all of the chow. In the morning this second group of mice were bled and their HDL tested in the human artery wall cell culture together with the HDL from the first experiment.
Ten mg of Niclosamide was placed in a glass-glass homogenizer with mortar and round bottom pestle (Kontes Dounce Tissue grinder, K885300-0015 available from Fisher, VWR) and 200 μL of ethanol was added. The Niclosamide ethanol mixture was homogenized using 2-3 strokes and distilled water was added and the mixture further homogenized using 5-10 strokes and the volume was adjusted to 10 mL with distilled water. Serial dilutions of this mixture were made using distilled water to give the micrograms of Niclosamide shown on the x-axis, which were contained in 100 μL. L-4F (free base) was diluted with water to give 10 μg per 100 μL of water. One hundred microliters of the Niclosamide solution was given by stomach tube to each mouse in each group of twelve-month-old non-fasting female apoE null mice (n=4 per group) and immediately followed by 100 μL containing 10 μg of L-4F (free base) in water. The mice were fasted and after 7 hours they were bled and their plasma was sucrose cryopreserved. The plasma was fractionated by FPLC and the HDL-containing fractions were tested for their ability to inhibit the induction of monocyte chemotactic activity by a standard control human LDL, which was added to cultures of human aortic endothelial cells. The standard control human LDL was also added by itself or with a standard control human HDL. The values obtained by the standard control human LDL alone were normalized to 1.0. […]

[4] = tested on: inflammatory response induced by the action of HPODE oxidizing PAPC in cocultures of human artery wall cells; conditions: apoE null mice, drinking water 24 hours; D-4F 1 μg/ml, atorvastatin or pravastatin 0.05 mg/ml; cited from earlier work
[5] = Solubilization of niclosamide in water with or without L-4F; type: physicochemical; conditions: even when added in ethanol and homogenized
Method: Niclosamide at 10 mg per mL was added to water, or to water containing 1.0 mg/mL L-4F (free base) and was homogenized in a glass-glass homogenizer. The solutions were stored at 4° C. for ten days and photographed
Niclosamide at 10 mg per mL was added to water, or to water containing 1.0 mg/mL L-4F (free base) and was homogenized in a glass-glass homogenizer.

[6] = tested on: aortic sinus lesion area; assay: Lesion regression in old apoE null mice, six months in chow; type: in vivo; conditions: FIGS. 32-34: niclosamide 2 mg and/or L-4F 200 μg/mouse/day in chow, pravastatin 50 μg/mouse/day, 26 weeks
Source text: Ninety-five female apoE null mice age 9.5 months from the UCLA breeding colony were identified. Twenty-three were sacrificed at time Zero (Group I) to establish lesion area at the start of the experiment. The remainder of the mice were divided into three groups of 24 mice each and the following additions were made to the chow for each group: Group II: Niclosamide at 2,000 micrograms/mouse/day; Group III: L-4F at 200 micrograms/mouse/day; Group IV: L-4F at 200 micrograms/mouse/day plus Niclosamide at 2,000 micrograms/mouse/day. All groups received 50 micrograms/mouse/day of pravastatin in their drinking water. At the veterinarian's request because of fighting and/or ulcerative dermatitis mice were euthanized prior to the end of the experiment as follows: 6 mice from Group II; 5 mice from Group III; 4 mice from Group IV. After six months the remaining mice were sacrificed and aortic sinus lesion area was determined as described previously (Id.).
In still another experiments, nine and half months-old female apoE null mice were divided into four groups: Group I was sacrificed to establish base line lesion area (Time Zero). Group II received niclosamide at 2 mg/mouse/day in rodent chow. Group III received L-4F at 200 μg/mouse/day in rodent chow. […] After 26 weeks the mice were sacrificed and aortic sinus lesion area was determined.

[7] = Fate of peptides after an oral dose (degradation, association with HDL, clearance from the circulation)
[8] = mouse, in vivo; cited from earlier work
[9] = tested on: LDL-induced monocyte chemotactic activity in cultures of human aortic endothelial cells; conditions: mice, oral, without niclosamide; human artery wall cells (Navab 2002); cited from earlier work
[10] = mouse, in vivo
[11] = mouse, in vivo, 100 ug
Method: (§1) Fasted apoE null mice 6-months of age (n=4 per group) were administered by stomach tube ^14C-L-4F (21,000 dpm containing 10 micrograms of L-4F per mouse) with or without 100 micrograms of niclosamide in 200 microliters. Fasting was continued and the mice were bled at the time points shown on the X-axis and the dpm per mL plasma determined.
(§2) Fasted female apoE null mice 6-months of age (n=4 per group) were administered by stomach tube L-4F (21,000 dpm containing 10 micrograms of L-4F per mouse) with or without 100 micrograms of niclosamide in 200 μL 0.1% Tween20 in ammonium bicarbonate at pH 7.0. Fasting was continued and the mice were bled at the time points shown on the X-axis in FIG. 27 and the dpm per mL plasma determined.

[12] = mouse, in vivo; remark: listed apart in the source
Method: as §1, §2

[13] = FIG. 8: female apoE null mice, overnight in chow, niclosamide 8 or 100 μg and/or L-4F 2 or 10 μg per gram of chow
[14] = FIG. 22: 10 μg peptide with or without niclosamide 10:1, pH 8.0, stomach tube, 7 hours

O=C(Nc1ccc([N+](=O)[O-])cc1Cl)c1cc(Cl)ccc1O [ethanolamine salt, 5-chloro-salicyl-(2-chloro-4-nitro) anilide 2-aminoethanol salt]
solubility in water [1]: 0.18 to 0.28 mg/mL

O=C(Nc1ccc([N+](=O)[O-])cc1Cl)c1ccc(Cl)cc1O [BP-1001]
LDL-inflammatory index, potency relative to niclosamide [2]: more potent | HDL-inflammatory index, potency relative to niclosamide [3]: more potent than niclosamide

CC(C)c1c(C(=O)Nc2ccccc2)c(-c2ccccc2)c(-c2ccc(F)cc2)n1CC[C@@H](O)C[C@@H](O)CC(=O)O [atorvastatin, reference compound]
HDL function [4]: did not improve HDL function

O=C(Nc1ccc([N+](=O)[O-])cc1Cl)c1cc(Cl)ccc1O [Niclosamide, 2′5-dichloro-4′-nitrosalicylanilide]
solubility in aqueous solutions [5]: relatively insoluble | lesions in old apoE null mice versus time zero [6]: neither niclosamide nor L-4F without niclosamide significantly reduced lesions | solubility in water [1]: 0.005 to 0.008 mg/mL | solubility in acetone [1]: soluble in acetone | solubility in ether, ethanol and chloroform [1]: sparingly soluble | stability in tablets ([1]; moist environments): undergoes a biodegradation | HDL-inflammatory index [3, 13]: ineffective | HDL-inflammatory index ([3]; FIG. 24: salicylanilide administered without the peptides): neither niclosamide nor the new salicylanilides were anti-inflammatory

D-4F: 4F (SEQ ID NO:5) where one or more residues are D form amino acids (DWFKAFYDKVAEKFKEAF; also: one or more residues D-form, places not given here)
HDL function [4]: did not significantly improve HDL function | association with pre-beta HDL and HDL ([7]; after an oral dose): rapidly associates with pre-beta HDL and HDL | time after an oral dose at which essentially non-detectable in the circulation ([7]; oral dose): 6 h | HDL-inflammatory index [3, 14]: able to render apoE null mouse HDL anti-inflammatory to a degree comparable to normal human HDL

CC(=O)N[C@@H](CC(=O)O)C(=O)N[C@@H](Cc1c[nH]c2ccccc12)C(=O)N[C@@H](Cc1ccccc1)C(=O)N[C@@H](CCCCN)C(=O)N[C@@H](C)C(=O)N[C@@H](Cc1ccccc1)C(=O)N[C@@H](Cc1ccc(O)cc1)C(=O)N[C@@H](CC(=O)O)C(=O)N[C@@H](CCCCN)C(=O)N[C@H](C(=O)N[C@@H](C)C(=O)N[C@@H](CCC(=O)O)C(=O)N[C@@H](CCCCN)C(=O)N[C@@H](Cc1ccccc1)C(=O)N[C@@H](CCCCN)C(=O)N[C@@H](CCC(=O)O)C(=O)N[C@@H](C)C(=O)N[C@@H](Cc1ccccc1)C(N)=O)C(C)C [L-4F, Ac-D-W-F-K-A-F-Y-D-K-V-A-E-K-F-K-E-A-F-NH2] (Ac-DWFKAFYDKVAEKFKEAF-NH2)
degradation after oral administration [8]: rapidly degraded | protective capacity of HDL to inhibit LDL-induced monocyte chemotactic activity [9]: did not significantly alter | time after an oral dose at which essentially non-detectable in the circulation [10]: 6 h | association with pre-beta HDL and HDL ([10]; po): rapidly associates with pre-beta HDL and HDL | lesions in old apoE null mice versus time zero [6]: neither niclosamide nor L-4F without niclosamide significantly reduced lesions | HDL-inflammatory index [3, 13]: slightly but significantly improved | HDL-inflammatory index [3, 14]: only able to achieve this degree of efficacy when co-administered with niclosamide

O=C(Nc1ccc([N+](=O)[O-])cc1Cl)c1ccc(O)c(Cl)c1 [BP-1012]
LDL-inflammatory index, potency relative to niclosamide [2]: more potent | HDL-inflammatory index, potency relative to niclosamide [3]: more potent than niclosamide

CC(=O)N[C@@H](CC(=O)O)C(=O)N[C@@H](Cc1c[nH]c2ccccc12)C(=O)N[C@@H](Cc1ccccc1)C(=O)N[C@@H](CCCCN)C(=O)N[C@@H](C)C(=O)N[C@@H](Cc1ccccc1)C(=O)N[C@@H](Cc1ccc(O)cc1)C(=O)N[C@@H](CC(=O)O)C(=O)N[C@@H](CCCCN)C(=O)N[C@H](C(=O)N[C@@H](C)C(=O)N[C@@H](CCC(=O)O)C(=O)N[C@@H](CCCCN)C(=O)N[C@@H](Cc1ccccc1)C(=O)N[C@@H](CCCCN)C(=O)N[C@@H](CCC(=O)O)C(=O)N[C@@H](C)C(=O)N[C@@H](Cc1ccccc1)C(N)=O)C(C)C [^14C-L-4F] (Ac-DWFKAFYDKVAEKFKEAF-NH2; N-terminus and C-terminus assumed)
Cmax [11]: ~0.15 µg/mL | duration of (low) plasma levels [12]: no more than 5 minutes | persistence of plasma level at a lower level [12]: up to four hours | persistence of the Cmax plasma level [12]: persisted for more than an hour | HDL inflammatory index ([3]; FIG. 28: 10 μg 14C-L-4F with 100 μg niclosamide, 5 hours): biologically active when given with niclosamide
